Earlier results on two compounds are cited in patent US20080200510A1, “Combination of Organic Compounds” (priority 2005, published 2008).

Assay in series [1]: not given
The source holds these as a separate data set.

The subject of series [2] is diet-induced obesity. As to conditions: preclinical studies; by decreasing body weight, food intake, regulating circulating lipids and energy balance.

As for `N#C[C@@H]1CCCN1C(=O)CNC12CC3CC(CC(O)(C3)C1)C2` [Vildagliptin, (S)-1-[(3-hydroxy-1-adamantyl)amino]acetyl-2-cyano-pyrrolidine], the glycemia result (agent alone, by preserving the incretin effects) is on record as “improves glycemia”.

Consider `Cc1c(C(=O)NN2CCCCC2)nn(-c2ccc(Cl)cc2Cl)c1-c1ccc(Cl)cc1` [rimonabant, N-piperidino-5-(4-chlorophenyl)-1-(2,4-dichlorophenyl)-4-methylpyrazole-3-carboxamide], for which, for the setting “agent by itself”, the body weight result is “reduction in body weight” and the food intake entry is “decrease in food intake”. In addition, the “body weight reduction in clinic” value in series [1] is “highly effective to produce body weight reduction”. The “reversal of diet-induced obesity” value in series [2] is “effective in reversing diet-induced obesity”.
